Laboratory results from patent publication US20170112941A1, “VE-CADHERIN BINDING BIOCONJUGATE” (Symic IP, LLC, priority 2015, published 2017).
Ends that are not written are not given here. * marks the point of attachment. NHNH2 = NN*

Assays:
[1] = system: HUVECs; test: HUVEC culture, thrombin challenge, pMLC/phalloidin fluorescence imaging; format: cell-based, human; details: thrombin 1 U/mL, eHep-Bbeta 100 μg/mL, 10 minutes at 37° C., FIG. 3
Method: HUVECs were grown to confluence in 24-well tissue culture treated plates (10000 cells per cm^2) for 3 days. The cells were cultured in vascular basal medium (ATCC, prod# PCS-100-030) supplemented with 0.2% bovine brain extract (BBE), 10 mM L-glutamine, 5 U/mL heparin sodium, 1 μg/mL hydrocortisone hemisuccinate, 50 μg/mL ascorbic acid, and 20% fetal bovine serum. The wells were washed three times with 1× phosphate buffered saline (PBS), and then were treated with medium alone, medium supplemented with thrombin at 1 U/mL, medium supplemented with thrombin at 1 U/mL and eHep-Bbeta at 100 μg/mL, medium supplemented with thrombin at 1 U/mL and heparin at 100 μg/mL for 10 minutes at 37° C. The wells were then washed three times with 1×PBS. Each wash was for 5 minutes. The cells were then fixed using 4% formalin in 1×PBS for 15 minutes at room temperature, washed four times with 1×PBS (each wash was for 10 minutes). Blocking buffer containing 5% normal goat serum, and 0.3% Triton-X 100 in 1×PBS was prepared and 500 μL was added to each well. Blocking was done for 1 hour at room temperature. Antibody dilution buffer containing 1% BSA, and 0.3% Triton-X 100 in 1×PBS was prepared. 200 μL of Rabbit anti pMLC diluted 1:50 using antibody dilution buffer was added to each well and incubated overnight at 4° C. […] The wells were then imaged using an EVOS fluorescence microscope.

[2] = system: acute renal ischemic model; test: Renal Ischemia Reperfusion (acute renal ischemic model); format: in vivo; details: rat
Method: Kidney damage was assessed by measuring serum creatinine levels 24 hours post procedure, and by creatinine clearance measured at 24 hours and 7 days post procedure. In this study, the ischemia time was reduced here to produce a more moderate injury, and the bioconjugate was delivered to the femoral vein, rather than directly to the renal artery, in order to reduce procedure time. See, Verma, et al. “Renal Endothelial Injury and Microvascular Dysfunction in Acute Kidney Injury.” Seminars in nephrology. Vol. 35. No. 1. WB Saunders, 2015 and Urbschat, et al. “Combined peri-ischemic administration of BP 15-42 in treating ischemia reperfusion injury of the mouse kidney.” Microvascular research 101 (2015): 48-54. All test articles were formulated in 1×PBS at 5 mg/mL and 500 μL were delivered for an approximate dose of 10 mg/kg. 1.4. […] Animals were closed and monitored during recovery for 24 hours. • 1.5.8. […] If creatinine clearance was positive in the positive control or test article at 7 days, the animal was survived until day 28, at which point creatinine clearance was again be measured. […] Serum creatinine was measured in each animal at baseline (prior to procedure) and 24 hours post-procedure. • 1.7. Creatinine clearance was measured at 1 and 7 days post procedure. • 1.8. […] Serum creatinine and creatinine clearance levels measured at 24 hours was compared between groups using an unpaired t-test. […]

[3] = molecular target: T1, Recombinant VE cadherin/Fc chimera (Homo sapiens, UniProt P33151); test: VE-Cadherin Binding Assay (plate ELISA with biotinylated molecule, streptavidin-HRP)
T1 construct: purchased R&D systems 938-VC
T1 sequence (P33151 with tags, fused parts or gaps limits assumed): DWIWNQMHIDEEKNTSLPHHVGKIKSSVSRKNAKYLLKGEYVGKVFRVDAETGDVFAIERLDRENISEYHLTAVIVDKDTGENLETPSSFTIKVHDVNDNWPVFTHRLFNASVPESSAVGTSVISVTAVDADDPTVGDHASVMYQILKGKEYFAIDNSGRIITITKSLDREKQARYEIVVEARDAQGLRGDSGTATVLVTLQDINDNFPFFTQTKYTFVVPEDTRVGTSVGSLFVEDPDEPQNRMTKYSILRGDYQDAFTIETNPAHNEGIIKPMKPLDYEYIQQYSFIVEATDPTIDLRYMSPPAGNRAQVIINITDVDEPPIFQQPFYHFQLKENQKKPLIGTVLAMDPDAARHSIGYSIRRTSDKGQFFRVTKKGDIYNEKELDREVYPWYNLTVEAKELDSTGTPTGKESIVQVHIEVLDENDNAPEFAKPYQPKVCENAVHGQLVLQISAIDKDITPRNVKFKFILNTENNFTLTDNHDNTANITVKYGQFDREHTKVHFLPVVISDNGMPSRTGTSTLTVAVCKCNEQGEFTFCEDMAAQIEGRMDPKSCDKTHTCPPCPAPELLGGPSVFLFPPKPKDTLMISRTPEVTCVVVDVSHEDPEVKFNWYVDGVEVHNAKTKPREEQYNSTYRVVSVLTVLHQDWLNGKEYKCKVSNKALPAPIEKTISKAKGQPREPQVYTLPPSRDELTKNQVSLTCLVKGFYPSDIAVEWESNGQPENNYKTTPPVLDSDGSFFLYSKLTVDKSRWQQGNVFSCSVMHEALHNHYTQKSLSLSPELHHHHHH
Method: Recombinant VE cadherin/Fc chimera (R&D systems, Prod#938-VC) was prepared in 1× Phosphate Buffered Saline (PBS, Gibco, pH 7.4) at 5 μg/mL. 50 μL of this solution was incubated in each well of Costar high bind plate (Prod #9018) overnight at 4° C. The plate was washed three times with PBS. VE-cadherin coated wells were blocked using 0.5% non-fat dry milk and 50 μg/mL heparin sodium in 1×PBS. Blocked plates were then treated with a concentration gradient of eHep-Bbeta (biotinylated) molecule (eHep-Bbeta, 1:8:50). The eHep-Bbeta was dissolved in Tris-NaCl—CaCl2 at 1 mg/mL, serial dilution (1:3) 50 μL 2 hour RT. At the end of the incubation plate was washed three times with PBS.
Ultra-Streptavidin HRP (ThermoFisher Scientific, Prod# N504) was diluted 1:500 using 1% BSA, 1×PBS and 0.05% tween was used to detect the biotinylated molecule bound to rh VE-cadherin coated plates. 100 μL of streptavidin solution was incubated in each well for 20 minutes at RT. The plate was washed three times with 1×PBS. 100 μL of TMB substrate solution (Abcam, slowest kinetic rate) was added to each well and developed for 20 minutes in the dark. 25 μL of stop solution (0.64 M H2SO4 in water) was added to stop the reaction and absorbance was read using Molecular Device i3 at 450 nm.
This assay may be used to determine the binding affinity of the bioconjugates as well as the peptides alone.

Substance: eHep-Bbeta: Heparin (MWavg 16 kDa) coupled by EDC to Bbeta peptide GHRPLDKKREEAPSLRPAPPPISGGGYR(GSG)-hydrazide; about 3.7 peptides/heparin (GHRPLDKKREEAPSLRPAPPPISGGGYRGSG-NHNH2; also: coupled by EDC to heparin (MWavg 16 kDa), about 3.7 peptides/heparin, attachment site not given here)
- endothelial cell barrier function [1]: preserves endothelial cell barrier function
- protection from renal damage upon reperfusion, compared with active control (peptide alone) ([2]; 30 minutes ischemia, approximate dose 10 mg/kg into femoral vein immediately after clamp removal, FIG. 4): protects from renal damage upon reperfusion better than active control (peptide alone)
- kidney damage (serum creatinine 24 hours, creatinine clearance 24 hours and 7 days post procedure) ([2]; treatment immediately following renal reperfusion, approximate dose 10 mg/kg, femoral vein): inhibits kidney damage
- effect of Tris-NaCl-CaCl2 buffer on molecule binding to VE-cadherin ([3]; Tris-NaCl-CaCl2 buffer): enhances molecule binding significantly
- binding to VE-cadherin ([3]; biotinylated eHep-Bbeta (1:8:50), 1 mg/mL in Tris-NaCl-CaCl2, serial dilution 1:3, 2 hour RT, absorbance 450 nm, FIG. 2): binds to VE-cadherin in a dose dependent manner
